This passage reports IC50 and Ki results from ChEMBL document CHEMBL1909046, “DrugMatrix in vitro pharmacology data”.

Experiment [1] deals with 5-hydroxytryptamine receptor 6 (Homo sapiens, UniProt P50406). In kind it is cell membranes, HeLa, Membrane.
Experiment [2] can be described thus: DRUGMATRIX: Imidazoline I2, Central radioligand binding (ligand: [3H] Idazoxan). The class given is cell membranes, Rattus norvegicus, Wistar, Cerebral cortex, Membrane. The note with it: Not Active = under 50% inhibition at 10 µM.
In a further experiment the target is T1, Caspase-1 (Homo sapiens, UniProt P29466).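 Note: Caspase-1 enzyme inhibition assay with a peptide substrate; in other assays of this panel Not Active means under 50% inhibition at 10 µM.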
T1 sequence (P29466 whole entry): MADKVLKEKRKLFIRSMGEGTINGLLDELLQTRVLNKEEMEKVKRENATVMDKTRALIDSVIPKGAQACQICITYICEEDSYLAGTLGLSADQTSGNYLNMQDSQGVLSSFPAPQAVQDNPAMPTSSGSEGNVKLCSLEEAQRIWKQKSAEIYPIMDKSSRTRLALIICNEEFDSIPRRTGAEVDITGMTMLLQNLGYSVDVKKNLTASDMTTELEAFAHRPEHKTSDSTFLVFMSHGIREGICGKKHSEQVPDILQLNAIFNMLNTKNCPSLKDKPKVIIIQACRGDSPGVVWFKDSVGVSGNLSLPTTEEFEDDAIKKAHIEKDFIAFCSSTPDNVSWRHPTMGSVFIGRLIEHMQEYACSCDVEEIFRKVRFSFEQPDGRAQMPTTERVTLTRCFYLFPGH
Also on record: species or system Escherichia coli.

Experiment [3] can be described thus: DRUGMATRIX: Phosphodiesterase PDE3 enzyme inhibition (substrate: [3H]cAMP + cAMP). The class given is tissue-based, Homo sapiens. The following applies: platelet; Not Active = under 50% inhibition at 10 µM.
In another experiment the target is T2, Neutrophil elastase (Homo sapiens, UniProt P08246).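 Note: inhibition of neutrophil elastase enzyme activity, measured with a p-nitroanilide-linked peptide substrate; in other assays of this panel Not Active means under 50% inhibition at 10 µM.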
T2 sequence (P08246 whole entry): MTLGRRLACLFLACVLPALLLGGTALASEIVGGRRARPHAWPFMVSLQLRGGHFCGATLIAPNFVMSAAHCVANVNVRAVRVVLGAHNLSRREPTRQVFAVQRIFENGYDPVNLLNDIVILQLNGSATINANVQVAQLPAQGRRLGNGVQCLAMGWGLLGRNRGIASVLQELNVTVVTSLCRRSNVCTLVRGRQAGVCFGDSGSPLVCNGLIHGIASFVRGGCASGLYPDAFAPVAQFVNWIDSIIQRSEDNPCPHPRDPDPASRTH
In kind it is tissue-based.

In experiment [4] the target is Sodium-dependent dopamine transporter (Homo sapiens, UniProt Q01959). Description: DRUGMATRIX: Dopamine Transporter radioligand binding (ligand: [125I] RTI-55). The note with it: Not Active = under 50% inhibition at 10 µM; for Ki: read-out: Ki. In kind it is cell membranes, CHO-K1, Membrane.
Sequence of Sodium-dependent dopamine transporter (Q01959 whole entry): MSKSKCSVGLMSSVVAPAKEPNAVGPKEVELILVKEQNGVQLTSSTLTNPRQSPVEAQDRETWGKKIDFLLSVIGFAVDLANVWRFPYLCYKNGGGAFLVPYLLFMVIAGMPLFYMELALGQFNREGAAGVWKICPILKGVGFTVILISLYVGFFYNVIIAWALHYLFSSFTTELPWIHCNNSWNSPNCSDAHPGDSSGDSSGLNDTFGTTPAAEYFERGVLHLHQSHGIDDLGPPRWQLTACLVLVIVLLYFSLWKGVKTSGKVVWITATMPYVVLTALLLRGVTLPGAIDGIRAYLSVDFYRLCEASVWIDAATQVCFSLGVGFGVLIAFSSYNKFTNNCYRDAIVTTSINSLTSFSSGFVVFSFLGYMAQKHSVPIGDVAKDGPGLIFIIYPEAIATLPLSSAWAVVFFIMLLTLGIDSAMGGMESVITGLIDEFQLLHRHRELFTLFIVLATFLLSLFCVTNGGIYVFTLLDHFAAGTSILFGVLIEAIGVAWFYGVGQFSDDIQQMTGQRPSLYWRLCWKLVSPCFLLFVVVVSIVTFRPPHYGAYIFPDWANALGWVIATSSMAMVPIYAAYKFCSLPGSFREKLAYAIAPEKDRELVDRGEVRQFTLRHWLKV

Sequence of 5-hydroxytryptamine receptor 6 (P50406 whole entry): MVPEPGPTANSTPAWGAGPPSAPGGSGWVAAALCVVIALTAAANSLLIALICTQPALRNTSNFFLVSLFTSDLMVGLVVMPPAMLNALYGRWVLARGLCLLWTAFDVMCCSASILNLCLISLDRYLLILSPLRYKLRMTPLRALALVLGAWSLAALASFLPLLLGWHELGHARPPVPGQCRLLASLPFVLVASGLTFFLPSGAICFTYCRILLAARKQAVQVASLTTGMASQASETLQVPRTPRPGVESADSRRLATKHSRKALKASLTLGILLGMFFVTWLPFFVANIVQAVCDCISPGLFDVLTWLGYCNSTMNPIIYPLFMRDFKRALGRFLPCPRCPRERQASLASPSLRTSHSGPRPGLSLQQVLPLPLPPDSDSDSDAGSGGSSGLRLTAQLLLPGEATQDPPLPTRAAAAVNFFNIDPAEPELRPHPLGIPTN

The IC50 is the concentration that gives 50% inhibition. Broadly, the Ki is a dissociation constant, usually derived from enzyme kinetics or from competition with a known ligand. In the case of `CCOc1nc2cccc(C(=O)O)c2n1Cc1ccc(-c2ccccc2-c2nnn[nH]2)cc1`, the IC50 entry (in experiment [1] (hela); in experiment [2]; on Caspase-1; in experiment [3]; on Neutrophil elastase; in experiment [4] (cho-k1)) was “Not Active” in each case. In addition, the Ki result in experiment [2] and in experiment [3] was “Not Active” throughout.

Take `O=C(O)CCCc1cccs1`: the IC50 entry (in experiment [1] (hela); in experiment [2]; at Caspase-1; in experiment [3]; at Neutrophil elastase; in experiment [4] (cho-k1)) was “Not Active” throughout. In addition, the Ki entry in experiment [2] and in experiment [3] was “Not Active” each time.

On to `COc1ccccc1N`, for which the IC50 entry (in experiment [1] (hela); in experiment [2]; on Caspase-1; in experiment [3]; on Neutrophil elastase; in experiment [4] (cho-k1)) was “Not Active” throughout. Also, the Ki result in experiment [2] and in experiment [3] was “Not Active” each time.

With `O=C(c1ccccc1F)N1CCC(Cc2ccccc2)CC1`, the IC50 result (in experiment [1] (hela); in experiment [2]; against Caspase-1; in experiment [3]; against Neutrophil elastase; in experiment [4] (cho-k1)) was “Not Active” each time. Further, the Ki entry in experiment [2] and in experiment [3] was “Not Active” each time.

Regarding `Cc1c(O)cccc1C(=O)N[C@@H](CSc1ccccc1)[C@H](O)CN1C[C@H]2CCCC[C@H]2C[C@H]1C(=O)NC(C)(C)C`, the IC50 entry in experiment [1] (hela) is “Not Active”; in experiment [2] it was “Not Active”; against Caspase-1, “Not Active”; in experiment [3], “Not Active”; at Neutrophil elastase it was “Not Active”; in experiment [4] (read-out: IC50) it was 15500 nM. Further, the Ki entry is “Not Active” in experiment [2], “Not Active” in experiment [3] and 12300 nM in experiment [4].

Consider `CC(O)COC[C@H]1O[C@@H]2O[C@H]3[C@H](O)[C@@H](O)[C@@H](O[C@H]4[C@H](O)[C@@H](O)[C@@H](O[C@H]5[C@H](O)[C@@H](O)[C@@H](O[C@H]6[C@H](O)[C@@H](O)[C@@H](O[C@H]7[C@H](O)[C@@H](O)[C@@H](O[C@H]8[C@H](O)[C@@H](O)[C@@H](O[C@H]1[C@H](O)[C@H]2O)O[C@@H]8COCC(C)O)O[C@@H]7COCC(C)O)O[C@@H]6COCC(C)O)O[C@@H]5COCC(C)O)O[C@@H]4COCC(C)O)O[C@@H]3COCC(C)O` (stereo partly drawn) [2-HYDROXYPROPYL-BETA-CYCLODEXTRIN], for which the IC50 entry in experiment [1] (hela) is “Not Active”; in experiment [2], “Not Active”; at Caspase-1 it was “Not Active”; in experiment [3] it was “Not Active”; against Neutrophil elastase, “Not Active”; in experiment [4] (read-out: IC50), 1690 nM. The values for the Ki result in experiment [2], in experiment [3] and in experiment [4] were “Not Active”, “Not Active” and 1340 nM, respectively.

With `NC(=O)c1cccc(N)c1` [3-AMINOBENZAMIDE], the IC50 entry (in experiment [1] (hela); in experiment [2]; at Caspase-1; in experiment [3]; against Neutrophil elastase; in experiment [4] (cho-k1)) was “Not Active” throughout. Further, the Ki result in experiment [2] and in experiment [3] was “Not Active” each time.

On to `C[C@H]1O[C@H](O[C@H]2[C@H](O)[C@@H](O)[C@@H](O[C@H]3[C@H](O)[C@@H](O)C(O)O[C@@H]3CO)O[C@@H]2CO)[C@H](O)[C@@H](O)[C@@H]1N[C@H]1C=C(CO)[C@@H](O)[C@H](O)[C@H]1O` (stereo partly specified) [ACARBOSE], for which the IC50 entry (in experiment [1] (hela); in experiment [2]; on Caspase-1; in experiment [3]; at Neutrophil elastase; in experiment [4] (cho-k1)) was “Not Active” each time. For the same compound, the Ki result in experiment [2] and in experiment [3] was “Not Active” each time.

`CC[C@H]1[C@@H]2C[C@H]3[C@@H]4N(C)c5ccccc5[C@]45C[C@@H]([C@@H]2[C@H]5O)N3[C@@H]1O` [AJMALINE]: the IC50 result (in experiment [1] (hela); in experiment [2]; at Caspase-1; in experiment [3]; against Neutrophil elastase; in experiment [4] (cho-k1)) was “Not Active” each time. The Ki entry in experiment [2] and in experiment [3] was “Not Active” each time.

With `NC12CC3CC(CC(C3)C1)C2` [AMANTADINE], the IC50 result (in experiment [1] (hela); in experiment [2]; against Caspase-1; in experiment [3]; against Neutrophil elastase; in experiment [4] (cho-k1)) was “Not Active” throughout. Moreover, the Ki entry in experiment [2] and in experiment [3] was “Not Active” throughout.

As for `NCCCNCCSP(=O)(O)O` [AMIFOSTINE], the IC50 result (in experiment [1] (hela); in experiment [2]; against Caspase-1; in experiment [3]; at Neutrophil elastase; in experiment [4] (cho-k1)) was “Not Active” each time. For the same compound, the Ki entry in experiment [2] and in experiment [3] was “Not Active” each time.

For the compound `CN(C)CCC=C1c2ccccc2CCc2ccccc21` [AMITRIPTYLINE], the IC50 in experiment [1] (read-out: IC50) was 140 nM; in experiment [2] (read-out: IC50), 1680 nM; against Caspase-1, “Not Active”; in experiment [3] it was “Not Active”; at Neutrophil elastase, “Not Active”; in experiment [4] (cho-k1), “Not Active”. In addition, the Ki in experiment [2] (read-out: Ki) was 1120 nM; in experiment [3], “Not Active”.

Consider `CC(=O)Oc1ccccc1C(=O)O` [ASPIRIN], for which the half-maximal inhibitory concentration (IC50) entry (in experiment [1] (hela); in experiment [2]; on Caspase-1; in experiment [3]; against Neutrophil elastase; in experiment [4] (cho-k1)) was “Not Active” throughout. For the same compound, the Ki entry in experiment [2] and in experiment [3] was “Not Active” each time.

Turning to `CC(C)c1c(C(=O)Nc2ccccc2)c(-c2ccccc2)c(-c2ccc(F)cc2)n1CC[C@@H](O)C[C@@H](O)CC(=O)O` [ATORVASTATIN], the IC50 entry (in experiment [1] (hela); in experiment [2]; against Caspase-1; in experiment [3]; at Neutrophil elastase; in experiment [4] (cho-k1)) was “Not Active” in each case. In addition, the Ki entry in experiment [2] and in experiment [3] was “Not Active” each time.

As to `CC(=O)OC[C@H]1O[C@@H](n2ncc(=O)[nH]c2=O)[C@H](OC(C)=O)[C@@H]1OC(C)=O` [AZARIBINE], the IC50 entry (in experiment [1] (hela); in experiment [2]; on Caspase-1; in experiment [3]; against Neutrophil elastase; in experiment [4] (cho-k1)) was “Not Active” in each case. In addition, the Ki entry in experiment [2] and in experiment [3] was “Not Active” each time.

Take `C[C@H]1[C@H](NC(=O)/C(=N\OC(C)(C)C(=O)O)c2csc(N)n2)C(=O)N1S(=O)(=O)O` [AZTREONAM]: the IC50 result (in experiment [1] (hela); in experiment [2]; at Caspase-1; in experiment [3]; on Neutrophil elastase; in experiment [4] (cho-k1)) was “Not Active” throughout. The Ki result in experiment [2] and in experiment [3] was “Not Active” each time.

For `O=C(O)CCNC(=O)c1ccc(/N=N/c2ccc(O)c(C(=O)O)c2)cc1` [BALSALAZIDE], the IC50 result (in experiment [1] (hela); in experiment [2]; against Caspase-1; in experiment [3]; on Neutrophil elastase; in experiment [4] (cho-k1)) was “Not Active” each time. Also, the Ki entry in experiment [2] and in experiment [3] was “Not Active” each time.

Consider `COc1cc(OC)c(C(=O)CCCN2CCCC2)c(OC)c1` [BUFLOMEDIL], for which the half-maximal inhibitory concentration (IC50) entry (in experiment [1] (hela); in experiment [2]; against Caspase-1; in experiment [3]; against Neutrophil elastase; in experiment [4] (cho-k1)) was “Not Active” each time. Moreover, the inhibitory constant (Ki) entry in experiment [2] and in experiment [3] was “Not Active” in each case.

In the case of `Cn1c(=O)c2c(ncn2C)n(C)c1=O` [CAFFEINE], the IC50 result (in experiment [1] (hela); in experiment [2]; at Caspase-1; in experiment [3]; at Neutrophil elastase; in experiment [4] (cho-k1)) was “Not Active” each time. In addition, the Ki entry in experiment [2] and in experiment [3] was “Not Active” throughout.

`N=C(N)c1ccc(OCCCCCOc2ccc(C(=N)N)cc2)cc1` [PENTAMIDINE]: the IC50 entry in experiment [1] (hela) is “Not Active”; in experiment [2] (read-out: IC50) it was 3520 nM; against Caspase-1, “Not Active”; in experiment [3], “Not Active”; on Neutrophil elastase it was “Not Active”. In addition, the Ki is 2350 nM in experiment [2] (read-out: Ki) and “Not Active” in experiment [3].
